Reference: patent US8889667B2 (Agios Pharmaceuticals, Inc, priority 2010, dated 2014)

Each compound was assayed against PKM2 (Homo sapiens, UniProt P14618) (assay: PKM2 Assay (activation, LDH-coupled, absorbance at 340 nm)). Details: Table 4.
PKM2, sequence (P14618 whole entry): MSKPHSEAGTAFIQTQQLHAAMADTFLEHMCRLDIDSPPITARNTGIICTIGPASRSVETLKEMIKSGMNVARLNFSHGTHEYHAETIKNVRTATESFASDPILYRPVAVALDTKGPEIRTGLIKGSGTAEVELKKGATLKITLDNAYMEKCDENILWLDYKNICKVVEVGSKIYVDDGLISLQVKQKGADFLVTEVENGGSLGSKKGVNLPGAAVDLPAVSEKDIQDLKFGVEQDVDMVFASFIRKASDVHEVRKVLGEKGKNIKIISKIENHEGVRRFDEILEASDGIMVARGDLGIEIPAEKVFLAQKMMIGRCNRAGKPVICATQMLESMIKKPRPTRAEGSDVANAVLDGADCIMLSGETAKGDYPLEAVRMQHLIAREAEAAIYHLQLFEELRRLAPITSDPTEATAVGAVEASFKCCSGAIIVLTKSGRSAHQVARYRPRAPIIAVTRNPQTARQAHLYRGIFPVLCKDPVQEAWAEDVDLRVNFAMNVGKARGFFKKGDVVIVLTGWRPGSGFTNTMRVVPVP
Assay type: biochemical
In short: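 Read-out was the 340 nm NADH absorbance change at 25 °C in an LDH-coupled system (PEP 0.15 mM, NADH 180 μM, ADP 0.7 mM to initiate) in 50 mM Tris pH 7.5, 100 mM KCl, 5 mM MgCl2. PKM2 at 50 ng/well was first preincubated with compound for 30 min at 4 °C. Activation given as AC50.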
With `C[C@H]1CN(C[C@H]2CCOC2)CCN1C(=O)c1ccc(NS(=O)(=O)c2cccc3cccnc23)cc1` [Compound 210] the AC50 was 100 to 500 nM.
`C[C@@H]1CN(C(=O)OC2CCCCC2)CCN1C(=O)c1ccc(NS(=O)(=O)c2cccc3cccnc23)cc1` [Compound 123, (R)-Cyclohexyl 3-methyl-4-(4-(quinoline-8-sulfonamido)benzoyl)piperazine-1-carboxylate] was tested, and the AC50 was < 100 nM.
For `CC(c1cc(F)c(F)c(F)c1)N1CCN(C(=O)c2ccc(NS(=O)(=O)c3cccc4cccnc34)cc2)[C@H](C)C1` (stereo partly drawn) [Compound 158, N-(4-((2R)-2-methyl-4-(1-(3,4,5-trifluorophenyl)ethyl)piperazine-1-carbonyl)phenyl)quinoline-8-sulfonamide], the AC50 was 100 to 500 nM.
`C[C@@H]1CN(Cc2cc(F)c(F)cc2F)CCN1C(=O)c1ccc(NS(=O)(=O)c2cccc3cccnc23)cc1` [Compound 120, (R)—N-(4-(2-methyl-4-(2,4,5-trifluorobenzyl)piperazine-1-carbonyl)phenyl)quinoline-8-sulfonamide] was tested, and the AC50 was < 100 nM.
`CC[C@H]1CN(C(C)c2cc(F)c(F)c(F)c2)CCN1C(=O)c1ccc(NS(=O)(=O)c2cccc3cccnc23)cc1` (stereo partly drawn) [Compound 162, N-(4-((2S)-2-ethyl-4-(1-(3,4,5-trifluorophenyl)ethyl)piperazine-1-carbonyl)phenyl)quinoline-8-sulfonamide] was tested, and the AC50 was 100 to 500 nM.
In the case of `CC1CN(CC2CCCCC2)CC(C)N1C(=O)c1ccc(NS(=O)(=O)c2cccc3cccnc23)cc1` (stereo not shown) [Compound 198, N-(4-(4-(cyclohexylmethyl)-2,6-dimethylpiperazine-1-carbonyl)phenyl)quinoline-8-sulfonamide], the AC50 was 100 to 500 nM.
With `CC1CN(Cc2cc(F)cc(F)c2F)CC(C)N1C(=O)c1ccc(NS(=O)(=O)c2cccc3cccnc23)cc1` (stereo not shown) [Compound 200, N-(4-(2,6-dimethyl-4-(2,3,5-trifluorobenzyl)piperazine-1-carbonyl)phenyl)quinoline-8-sulfonamide] the AC50 was < 100 nM.
`C[C@H]1CN(C[C@@H]2CCOC2)CCN1C(=O)c1ccc(NS(=O)(=O)c2cccc3cccnc23)cc1` [Compound 209] showed an AC50 of 100 to 500 nM.
With `C[C@H]1CN(Cc2cc(F)cc(F)c2)CCN1C(=O)c1ccc(NS(=O)(=O)c2cccc3cccnc23)cc1Cl` [Compound 179] the AC50 was 100 to 500 nM.
For `O=C(c1ccc(NS(=O)(=O)c2cccc3cccnc23)cc1)N1C2CCC1CN(Cc1ccccc1)C2` [Compound 213], the AC50 was < 100 nM.
Work on `C[C@H]1CN(Cc2c(F)ccc(F)c2F)CCN1C(=O)c1ccc(NS(=O)(=O)c2cccc3cccnc23)cc1` [Compound 141, (S)—N-(4-(2-methyl-4-(2,3,6-trifluorobenzyl)piperazine-1-carbonyl)phenyl)quinoline-8-sulfonamide] yielded an AC50 of 100 to 500 nM.
`C[C@H]1CN(Cc2cc(F)cc(F)c2F)CCN1C(=O)c1ccc(NS(=O)(=O)c2cccc3cccnc23)cc1` [Compound 137, (S)—N-(4-(2-methyl-4-(2,3,5-trifluorobenzyl)piperazine-1-carbonyl)phenyl)quinoline-8-sulfonamide] was tested, and the AC50 was < 100 nM.
`CC1CN(Cc2cc(F)c(F)c(F)c2)CC(C)N1C(=O)c1ccc(NS(=O)(=O)c2cccc3cccnc23)cc1` (stereo not shown) [Compound 201, N-(4-(2,6-dimethyl-4-(3,4,5-trifluorobenzyl)piperazine-1-carbonyl)phenyl)quinoline-8-sulfonamide] was tested, and the AC50 was 100 to 500 nM.
`CC(c1c(F)cc(F)cc1F)N1CCN(C(=O)c2ccc(NS(=O)(=O)c3cccc4cccnc34)cc2)[C@@H](C)C1` (stereo partly shown) [Compound 172] gave an AC50 of 100 to 500 nM.

Same assay, conditions: Table 5
Work on `O=C(Oc1ccccn1)N1CCN(C(=O)c2ccc(NS(=O)(=O)c3cccc4cccnc34)c(OC(F)(F)F)c2)CC1` [Compound 344, Pyridin-2-yl4-(4-(quinoline-8-sulfonamido)-3-(trifluoromethoxy)benzoyl)piperazine-1-carboxylate] yielded an AC50 of 500 to 1000 nM.
Work on `CCOC(=O)N1CCN(C(=O)c2ccc(NS(=O)(=O)c3cccc4cccnc34)nc2)CC1` [Compound 446, Ethyl 4-(6-(quinoline-8-sulfonamido)nicotinoyl)piperazine-1-carboxylate] yielded an AC50 of 1000 to 20000 nM.
In the case of `O=C(c1ccc(NS(=O)(=O)c2cccc3cccnc23)c(OC(F)(F)F)c1)N1CCN(Cc2ccc(Cl)cc2)CC1` [Compound 338, N-(4-(4-(4-chlorobenzyl)piperazine-1-carbonyl)-2-(trifluoromethoxy)phenyl)quinoline-8-sulfonamide], the AC50 was 100 to 500 nM.
In the case of `[2H]C(c1ccc(F)cc1)N1CCN(C(=O)c2ccc(NS(=O)(=O)c3cccc4cccnc34)cc2)CC1` (stereo not shown) [Compound 448, N-(4-(4-(4-fluorobenzyl)piperazine-1-carbonyl)phenyl)quinoline-8-sulfonamide-(D)], the AC50 was < 100 nM.
`O=C(c1cnc(NS(=O)(=O)c2cccc3cccnc23)cn1)N1CCN(Cc2ccc(F)cc2)CC1` [Compound 452, N-(5-(4-(4-fluorobenzyl)piperazine-1-carbonyl)pyrazin-2-yl)quinoline-8-sulfonamide] gave an AC50 of 1000 to 20000 nM.
Work on `O=C(c1ccc(NS(=O)(=O)c2cccc3cccnc23)c(OC(F)(F)F)c1)N1CCN(Cc2cccc(Cl)c2)CC1` [Compound 379, N-(4-(4-(3-chlorobenzyl)piperazine-1-carbonyl)-2-(trifluoromethoxy)phenyl)quinoline-8-sulfonamide] yielded an AC50 of 100 to 500 nM.
`COc1cc(C(=O)N2CCN(C(=O)c3cccc(OC)c3F)CC2)ccc1NS(=O)(=O)c1cccc2cccnc12` [Compound 320, N-(4-(4-(2-fluoro-3-methoxybenzoyl)piperazine-1-carbonyl)-2-methoxyphenyl)quinoline-8-sulfonamide] gave an AC50 of 100 to 500 nM.
`O=C(c1ccc(NS(=O)(=O)c2cccc3cccnc23)nc1)N1CCN(CC2CC2)CC1` [Compound 411, N-(5-(4-(cyclopropylmethyl)piperazine-1-carbonyl)pyridin-2-yl)quinoline-8-sulfonamide] showed an AC50 of 1000 to 20000 nM.
With `O=C(c1ccc(NS(=O)(=O)c2cccc3cccnc23)cc1F)N1CCN(CC2CCOC2)CC1` (stereo not shown) [Compound 425, N-(3-fluoro-4-(4-((tetrahydrofuran-3-yl)methyl)piperazine-1-carbonyl)phenyl)quinoline-8-sulfonamide] the AC50 was < 100 nM.
Work on `Cc1cnc(C(=O)N2CCN(C(=O)c3ccc(NS(=O)(=O)c4cccc5cccnc45)cc3)CC2)cn1` [Compound 346, N-(4-(4-(5-methylpyrazine-2-carbonyl)piperazine-1-carbonyl)phenyl)quinoline-8-sulfonamide] yielded an AC50 of 500 to 1000 nM.
`O=C(c1ccc(NS(=O)(=O)c2cccc3cccnc23)c(OC(F)(F)F)c1)N1CCN(Cc2cc(Cl)cc(Cl)c2)CC1` [Compound 391, N-(4-(4-(3,5-dichlorobenzyl)piperazine-1-carbonyl)-2-(trifluoromethoxy)phenyl)quinoline-8-sulfonamide] showed an AC50 of 100 to 500 nM.
`O=C(c1ccc(NS(=O)(=O)c2cccc3cccnc23)cc1)N1CCN(C(=O)C2CCCO2)CC1` (stereo not shown) [Compound 443, N-(4-(4-(tetrahydrofuran-2-carbonyl)piperazine-1-carbonyl)phenyl)quinoline-8-sulfonamide] showed an AC50 of 500 to 1000 nM.
`O=C(c1ccc(NS(=O)(=O)c2cccc3cccnc23)cc1F)N1CCN(CC2CC2)CC1` [Compound 424, N-(4-(4-(cyclopropylmethyl)piperazine-1-carbonyl)-3-fluorophenyl)quinoline-8-sulfonamide] showed an AC50 of 100 to 500 nM.
With `O=C(c1ccc(NS(=O)(=O)c2cccc3cccnc23)c(OC(F)(F)F)c1)N1CCN(Cc2cccc(Cl)c2Cl)CC1` [Compound 306, N-(4-(4-(2,3-dichlorobenzyl)piperazine-1-carbonyl)-2-(trifluoromethoxy)phenyl)quinoline-8-sulfonamide] the AC50 was 500 to 1000 nM.
Work on `O=C(c1ccc(NS(=O)(=O)c2cccc3cccnc23)c(OC(F)(F)F)c1)N1CCN(Cc2ccccc2F)CC1` [Compound 335, N-(4-(4-(2-fluorobenzyl)piperazine-1-carbonyl)-2-(trifluoromethoxy)phenyl)quinoline-8-sulfonamide] yielded an AC50 of 100 to 500 nM.
`O=C(c1ccc(NS(=O)(=O)c2cccc3cccnc23)c(OC(F)(F)F)c1)N1CCN(Cc2ccc(C(F)(F)F)cc2)CC1` [Compound 334, N-(2-(trifluoromethoxy)-4-(4-(4-(trifluoromethyl)benzyl)piperazine-1-carbonyl)phenyl)quinoline-8-sulfonamide] showed an AC50 of 100 to 500 nM.
`O=C(c1ccc(NS(=O)(=O)c2cccc3cccnc23)cn1)N1CCN(Cc2ccc(F)cc2)CC1` [Compound 416, N-(6-(4-(4-fluorobenzyl)piperazine-1-carbonyl)pyridin-3-yl)quinoline-8-sulfonamide] gave an AC50 of 100 to 500 nM.
For `O=C(c1cccnc1)N1CCN(C(=O)c2ccc(NS(=O)(=O)c3cccc4cccnc34)c(OC(F)(F)F)c2)CC1` [Compound 323, N-(4-(4-nicotinoylpiperazine-1-carbonyl)-2-(trifluoromethoxy)phenyl)quinoline-8-sulfonamide], the AC50 was 500 to 1000 nM.
`O=C(c1ccc(NS(=O)(=O)c2cccc3cccnc23)cc1)N1CCN(C(c2ccc(F)cc2)C(F)(F)F)CC1` (stereo not shown) [Compound 351, N-(4-(4-(2,2,2-trifluoro-1-(4-fluorophenyl)ethyl)piperazine-1-carbonyl)phenyl)quinoline-8-sulfonamide] was tested, and the AC50 was < 100 nM.
`COc1ccncc1CN1CCN(C(=O)c2ccc(NS(=O)(=O)c3cccc4cccnc34)c(OC(F)(F)F)c2)CC1` [Compound 305, N-(4-(4-((4-methoxypyridin-3-yl)methyl)piperazine-1-carbonyl)-2-(trifluoromethoxy)phenyl)quinoline-8-sulfonamide] showed an AC50 of 100 to 500 nM.
In the case of `Cc1cnc(C(=O)N2CCN(C(=O)c3ccc(NS(=O)(=O)c4cccc5cccnc45)c(OC(F)(F)F)c3)CC2)cn1` [Compound 325], the AC50 was 1000 to 20000 nM.
For `O=C(OCC1CCCO1)N1CCN(C(=O)c2ccc(NS(=O)(=O)c3cccc4cccnc34)c(OC(F)(F)F)c2)CC1` (stereo not shown) [Compound 316, (tetrahydrofuran-2-yl)methyl-4-(4-(quinoline-8-sulfonamido)-3-(trifluoromethoxy)benzoyl)piperazine-1-carboxylate], the AC50 was 1000 to 20000 nM.
Compound `O=C(c1ccc(NS(=O)(=O)c2cccc3cccnc23)cc1)N1CCN(C(=O)c2c[nH]cn2)CC1` [Compound 349, N-(4-(4-(1H-imidazole-4-carbonyl)piperazine-1-carbonyl)phenyl)quinoline-8-sulfonamide] has an AC50 of 100 to 500 nM.
